Experiments:
WM cell lines = assay: Adhesion of WM cells to primary WM BM-MSCs; type: cell-based, human; conditions: 4 h treatment, adhesion after 2 h
Description: FIGS. 15A-15C: FIGS. 15A-15C show the effect of BMS-936564 on adhesion and proliferation of WM cells in vitro. WM cell lines were treated with BMS-936564 for 4 h and subsequently tested for adhesion to primary WM BM-MSCs. […] WM cell lines, MWCL.1 (FIG. 15B) and BCWN.1 (FIG. 15C) were cultured with control media and with BMS-936564 for 48 h in the presence or absence of primary WM BMMSCs. Cell proliferation was assessed using a [^3H]-thymidine uptake assay. Bars indicate standard deviations. P indicates P value. All data represent mean (±sd) of triplicate experiments. The CXCR4 antagonist, […] (Sigma-Aldrich, St. Louis, Mo.), was used as control.

[1] = test system: C1013G/CXCR4-infected BCWM.1 cells; assay: Adhesion of C1013G/CXCR4-infected cells to primary WM BM-MSCs; type: cell-based, human; conditions: in the context of the BM microenvironment
Description: FIGS. 21A-21D: FIGS. 21A-21D show BMS-936564 targets C1013G/CXCR4-mutated cells in WM cells in the context of BM. C1013G/CXCR4-infected BCWM.1 cells were tested for their migratory properties using a transwell migration assay. Cells were exposed to increasing concentrations of BMS-936564 and migration was determined after 5 h. The transwell migration assay was performed in presence of either primary WM BM-MSCs (FIG. 21A) or SDF-1α (FIG. 21B). In both cases, BMS-936564-dependent inhibition of WM cell migration was observed. C1013G/CXCR4-infected BCWM.1 cells were treated with BMS-936564/for 4 h and subsequently tested for adhesion to primary WM BM-MSCs. […] C1013G/CXCR4-infected BCWM.1 cells were cultured with control media and with BMS-936564 for 48 h in the presence or absence of primary WM BM-MSCs. Cell proliferation was assessed using [^3H]-thymidine uptake assay (FIG. 21D). Bars indicate standard deviations. P indicates P value. All data represent mean (±sd) of triplicate experiments. […].

[2] = test system: C1013G/CXCR4-mutated cells; assay: Western blot of survival and apoptosis-related proteins in C1013G/CXCR4-WM cells; type: cell-based, human
Description: FIGS. 22A-22C: FIGS. 22A-22C show the effect of BMS-936564 on survival and apoptosis-related signal proteins in C1013G/CXCR4-WM cells. C1013G/CXCR4-mutated cells were cultured in presence or absence of BMS-936564 for 6 h, showing inhibition of phospho(p)-ERK, ERK, p-Akt, Akt, p-Src (FIG. 22A). Similarly, cells were exposed to the compound for 14 h, and induction of apoptosis-related pathways was observed (p-GSK3β, and p-β-catenin (FIG. 22B), and PARP and Caspase-9 (FIG. 22C)).
Protein lysates were obtained from WM cells by homogenization under nondenaturing conditions in lysis buffer (Cell Signaling Technology, Beverly, Mass.) supplemented with 5 mM NaF, 2 mM Na3VO4, 1 mM PMSF ([…]), 5 μg/mL leupeptine, and 5 μg/mL aprotinin. Whole-cell lysates were subjected to sodium dodecyl sulfate-polyacrylamide gel electrophoresis (SDS-PAGE) and transferred to polyvinylidene difluoride (PVDF) membrane (Bio-Rad Laboratories, Hercules, Calif.). The antibodies used for immunoblotting included: anti-phospho(p)-ERK, anti-ERK, anti-p-Akt, anti-Akt, anti-p-Src, anti-Src, anti-caspase-9, anti-PARP, anti-p-β-catenin, anti-β-catenin, anti-p-GSK3, anti-GAPDH and anti-α-tubulin antibodies (Cell Signaling, Danvers, Mass.).

BCWM.1-mCherry+ cells = assay: In vivo homing and tumor progression of wild-type WM cells; set-up: species or system SCID/Bg mice
Description: Serum was collected at the end of the study. […] Cell toxicity was performed by MTT. […] Bars indicate standard deviation.
Human serum IgM levels were determined by using a human IgM ELISA assay (ZeptoMetrix, Buffalo, N.Y.), according to the manufacturer's protocol.
SCID/Bg mice (n=5/group) were injected with BCWM.1 infected with either precision LentiORF/CXCR4/GFP (CXCR4^+)- or empty vector probe/RFP (control)-infected BCWM.1 cells. After three weeks, mice were euthanized and organs harvested. Hematoxylin-eosin staining, immunohistochemistry for human-CD20 and -CXCR4 were performed on explanted organs. Independent experiments were conducted to evaluate differences in survival (SCID/Bg mice, n=7/group). Similar studies were conducted using […]/CXCR4-mutated cells and control vector-infected cells (control cells). In vivo homing studies were performed using BCWM.1-mCherry^+ cells: cells were injected intravenously into […] mice and treated with either BMS-936564 or control antibody (10 mg/kg, intraperitoneally; 3-4 times per week for 3 weeks). The ability of BMS-936564 to modulate WM homing to BM, spleen and lymph nodes was evaluated ex vivo at the third week on explanted tissues, by using a fluorescence microscope (Nikon Eclipse 80i, Melville, N.Y.) (Roccaro et al., 2013).
The anti-WM activity of BMS-936564 was also tested in vivo using wild-type WM cells. BCWM.1-mCherry^+ cells were injected intravenously into SCID/Bg mice and treated mice with either BMS-936564 or control antibody.
As CXCR4 inhibition is thought to induce stem cell and tumor cell mobilization, it was hypothesized that BMS-936564 may also induce mobilization of WM cells leading to increased chemosensitivity to anti-WM agents. Accordingly, the effect of BMS-936564 in modulating tumor progression and WM cell dissemination to distant BM niches in vivo was evaluated as monotherapy or in combination with bortezomib.

Substance: BMS-936564: fully human anti-CXCR4 monoclonal antibody; VH SEQ ID NO: 25, VL SEQ ID NO: 29
- WM cell adhesion to WM BM-MSCs (WM cell lines): inhibition
- targeting adhesion of CXCR4-mutated cells [1]: equally active
- p-ERK, p-Akt, and p-Src in WM cells harboring the C1013G/CXCR4 mutation ([2]; 6 h): dose-dependent inhibition
- GSK3-β/β-catenin signaling in CXCR4-mutated WM cells ([2]; 14 h): up-regulation of p-GSK3-β/p-β-catenin and β-catenin degradation
- caspase-9- and PARP-cleavage in CXCR4-mutated WM cells ([2]; 14 h): increased
- tumor cells within the BM (BCWM.1-mCherry+ cells; BMS-936564 10 mg/kg i.p., bortezomib 0.5 mg/kg i.p. x2/week, P<0.05): significant reduction
- serum IgM levels (BCWM.1-mCherry+ cells; human IgM ELISA at end of study, P<0.05): significantly reduced
- WM cell dissemination (BM, spleen and lymph nodes, immunofluorescence imaging ex vivo) (BCWM.1-mCherry+ cells; wild-type WM cells, 10 mg/kg intraperitoneally, vs control antibody): inhibit WM cell dissemination

Reference: US11220548B2, “Treatment of C1013G/CXCR4-associated Waldenstrom's macroglobulinemia with an anti-CXCR4 antibody” (BRISTOL-MYERS SQUIBB COMPANY, priority 2013, dated 2022)
